Measured values from patent publication US20250230193A1, “CYCLIC COMPOUND HAVING SELECTIVE KRAS INHIBITORY EFFECT ON HRAS AND NRAS” (CHUGAI SEIYAKU KABUSHIKI KAISHA, priority 2022, published 2025).
Where a SMILES comes first, the peptide text is derived from it. Bridges are numbered along the chain shown (N, C = ends). [ ]: non-standard residue; d: D form. The star is where a group is joined. hPhe(3,5-F2-4-CF3) = N[C@@H](CCc1cc(F)c(C(F)(F)F)c(F)c1)C(=O)O; NPrPhe(4-CF3) = CCCN[C@@H](Cc1ccc(C(F)(F)F)cc1)C(=O)O; NMeGly(cPent) = CN[C@H](C(=O)O)C1CCCC1; NMeD = CN[C@@H](CC(=O)O)C(=O)O; NMeL = CN[C@@H](CC(C)C)C(=O)O; αMeS = C[C@](N)(CO)C(=O)O; Sar = CNCC(=O)O; Allyl = C=CC*

Experiments:
[1] = system: human lung cancer strain NCI-H441; experiment: cells; conditions: NCI-H441, 96 h, read-out: NCI-H441 IC50 (nM)
[2] = target: GDP-bound HRAS wild-type protein (Homo sapiens, UniProt P01112); experiment: Binding to HRAS by surface plasmon resonance (SPR), Single Cycle Kinetics
[3] = target: GDP-bound NRAS wild-type protein (Homo sapiens, UniProt P01111); experiment: Binding to NRAS by surface plasmon resonance (SPR), Single Cycle Kinetics
[4] = KD ratio, GDP-bound HRAS wild-type vs GDP-bound KRAS wild-type, SPR
[5] = KD ratio, GDP-bound NRAS wild-type vs GDP-bound KRAS wild-type, SPR

Chain of GDP-bound HRAS wild-type protein (P01112 whole entry): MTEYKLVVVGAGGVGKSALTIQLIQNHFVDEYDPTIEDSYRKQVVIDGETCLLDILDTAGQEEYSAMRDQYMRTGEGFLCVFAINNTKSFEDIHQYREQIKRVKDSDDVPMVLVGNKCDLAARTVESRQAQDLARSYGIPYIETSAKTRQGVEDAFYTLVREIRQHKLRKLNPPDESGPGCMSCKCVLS
Chain of GDP-bound NRAS wild-type protein (P01111 whole entry): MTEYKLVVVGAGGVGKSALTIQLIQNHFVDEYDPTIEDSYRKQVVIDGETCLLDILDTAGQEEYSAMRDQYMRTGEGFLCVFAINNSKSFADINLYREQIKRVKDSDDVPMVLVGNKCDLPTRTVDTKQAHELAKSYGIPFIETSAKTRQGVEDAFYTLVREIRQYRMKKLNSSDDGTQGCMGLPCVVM

SMILES: CCO[C@@H]1C[C@H]2C(=O)NC3(CCC3)C(=O)N(C)[C@@H](C(CC)CC)C(=O)N(C)[C@H](C)CC(=O)N(C)[C@@H](CC3CCCC3)C(=O)N[C@@H]([C@@H](C)CC)C(=O)N(C)CC(=O)N(C)[C@H]3C/C=C\CCN(C3=O)[C@@H](Cc3ccc(F)cc3)C(=O)N(C)CC(=O)N[C@@H](CCc3cc(F)c(C(F)(F)F)c(F)c3)C(=O)N2C1 [PP1523]
- IC50 [1]: 320 nM

SMILES: CCO[C@@H]1C[C@H]2C(=O)NC3(CCC3)C(=O)N(C)[C@@H](C(CC)CC)C(=O)N3CCC[C@@H]3CC(=O)N(C)[C@@H](CC)C(=O)N[C@@H]([C@@H](C)CC)C(=O)N(C)CC(=O)N(C)[C@H]3C/C=C\CCN(C3=O)[C@@H](Cc3ccc(C(F)(F)F)cc3)C(=O)N(C)CC(=O)N[C@@H](CCc3cc(F)c(C(F)(F)F)c(F)c3)C(=O)N2C1 [PP1607]
- HRAS/KRAS (ratio of KD value for GDP-bound HRAS wild-type protein to KD value for KRAS) ([2]; SPR, KD ratio class): A (a compound having 10 or more and less than 20 is denoted as A)
- IC50 [1]: 39.3 nM

SMILES: CCCOC[C@H]1C(=O)N[C@@H]([C@@H](C)CC)C(=O)N(C)CC(=O)N(C)[C@H]2C/C=C\CCN(C2=O)[C@@H](Cc2ccc(C)cc2)C(=O)N(C)CC(=O)N[C@@H](CCc2cc(F)c(C(F)(F)F)c(F)c2)C(=O)N2C[C@H](CCC)C[C@H]2C(=O)NC2(CCCC2)C(=O)N(C)[C@@H](C2CCCC2)C(=O)N(C)[C@H](C(=O)N(C)C)CC(=O)N1C [PP2229]
- HRAS/KRAS (ratio of KD value with respect to HRAS to KD value with respect to KRAS) ([2]; SPR, GDP-bound HRAS wild-type vs GDP-bound KRAS wild-type): A (a compound having 10 or more and less than 20 is denoted as A)
- NRAS/KRAS (ratio of KD value with respect to NRAS to KD value with respect to KRAS) ([3]; SPR, GDP-bound NRAS wild-type vs GDP-bound KRAS wild-type): A (a compound having 10 or more and less than 20 is denoted as A)

SMILES: C=CCOC[C@]1(C)NC(=O)[C@@H]2CCCN2C(=O)[C@H](CCc2cc(F)c(C(F)(F)F)c(F)c2)NC(=O)CN(C)C(=O)[C@H](Cc2ccc(C(F)(F)F)cc2)N(CCC)C(=O)CN(C)C(=O)CN(C)C(=O)[C@H]([C@@H](C)CC)NC(=O)[C@H](CC(C)C)N(C)C(=O)C[C@@H](C(=O)N(C)C)N(C)C(=O)[C@H](C2CCCC2)N(C)C1=O [PP0742] ([NMeL]I[Sar][Sar][NPrPhe(4-CF3)][Sar][hPhe(3,5-F2-4-CF3)]P[αMeS](Allyl)[NMeGly(cPent)][NMeD]-NMe2; lactam N-11)
- HRAS/KRAS (ratio of KD value with respect to GDP-bound HRAS wild-type protein to KD value with respect to KRAS) ([2]; SPR): B (a compound having 3 or more and less than 10 is denoted as B)
- NRAS/KRAS (ratio of KD value with respect to GDP-bound NRAS wild-type protein to KD value with respect to KRAS) ([3]; SPR): B (a compound having 3 or more and less than 10 is denoted as B)

SMILES: CCCC[C@H]1C(=O)N[C@@H]([C@@H](C)CC)C(=O)N(C)CC(=O)N(C)[C@H]2C/C=C\CCN(C2=O)[C@@H](Cc2ccc(C(F)(F)F)cc2)C(=O)N(C)CC(=O)N[C@@H](CCc2ccc(C(F)(F)F)c(Cl)c2)C(=O)N2C[C@H](OCC)C[C@H]2C(=O)NC2(CCC2)C(=O)N(C)[C@@H](C2CCCC2)C(=O)N(C)[C@H](C(=O)N(C)CC)CC(=O)N1C [PP2841]
- HRAS/KRAS (ratio of KD value with respect to GDP-bound HRAS wild-type protein to KD value with respect to KRAS) ([2]; class symbols): A (a compound having 10 or more and less than 20 is denoted as A)
- NRAS/KRAS (ratio of KD value with respect to GDP-bound NRAS wild-type protein to KD value with respect to KRAS) ([3]; class symbols): A (a compound having 10 or more and less than 20 is denoted as A)

SMILES: CCC[C@H]1C(=O)N[C@@H]([C@@H](C)CC)C(=O)N(C)CC(=O)N(C)[C@H]2C/C=C\CCN(C2=O)[C@@H](Cc2ccc(C)cc2)C(=O)N(C)CC(=O)N[C@@H](CCc2ccc(C(F)(F)F)c(OC)c2)C(=O)N2C[C@@H](C)C[C@H]2C(=O)NC2(CC(C)(C)C2)C(=O)N(C)[C@@H](C2CCCC2)C(=O)N(C)[C@H](C(=O)N(C)C)CC(=O)N1C [PP1888]
- HRAS/KRAS (ratio of KD value for HRAS to KD value for KRAS) [2, 4]: B (a compound having 3 or more and less than 10 is denoted as B)
- NRAS/KRAS (ratio of KD value for NRAS to KD value for KRAS) [3, 5]: A (a compound having 10 or more and less than 20 is denoted as A)

SMILES: CCO[C@@H]1C[C@H]2C(=O)NC3(CCC3)C(=O)N(C)[C@@H](C3CCCC3)C(=O)N(C)[C@H](C(=O)N3CCOCC3)CC(=O)N(C)[C@@H](CC(C)C)C(=O)N[C@@H]([C@@H](C)CC)C(=O)N(C)CC(=O)N(C)[C@H]3C[C@@H](C)CCN(C3=O)[C@@H](Cc3ccc(C(F)(F)F)cc3)C(=O)N(C)CC(=O)N[C@@H](CCc3cc(F)c(C(F)(F)F)c(F)c3)C(=O)N2C1 [PP1025]
- HRAS/KRAS (ratio of KD value with respect to HRAS to KD value with respect to KRAS) [2, 4]: B (a compound having 3 or more and less than 10 is denoted as B)
- NRAS/KRAS (ratio of KD value with respect to NRAS to KD value with respect to KRAS) [3, 5]: C (A compound having a KD ratio of 0.1 or more and less than 3 is denoted as C)
